Measured values reported in patent US20240252524A1 (Hovione Scientia Limited, priority 2021, published 2024).
Several values for one entry are separate records, joined by “and”; a condition that tells them apart may be missing. Identical values can stand only once. Like-named read-outs stand apart in the source and are kept apart here.

Legend:
[1] = Particle size by laser diffraction (Sympatec HELOS) before/after high shear mixing; format: physicochemical
Description: The particle size data were obtained from a Sympatec module HELOS (Helium-Neon Laser Optical System), dispersion Unit RODOS/M, potent products accessory ASPIROS, lens R5 (4.50 μm-875 μm) and R4 (1.80 μm-350 μm), conditions R5, 0.1 bar-1 bar, 18 mm/s, R4, 3 bar, 18 mm/s

[2] = Stability of ivermectin under the high shear mixer process; format: physicochemical; settings: high shear mixer process of the invention
Description: Under the conditions set forth in this invention, ivermectin is submitted to high shear forces without suffering decomposition. High shear mixing processes provide stressful conditions which promote decomposition of the compounds submitted to such processes. The stressful conditions involve recirculating mixtures of the compounds with solvents, at very high speed, through mechanical systems which generate unaligned forces, driving to strong collisions between the particles and the mechanical parts of the high shear mixer and between the particles themselves. Such collisions break the particles of the product thus reducing their particle size. A side effect of the mechanical collisions is a significant increase in the temperature during the high shear mixer process. […] In fact, ivermectin is purified with good yields under the high shear process conditions set forth in this invention.

[3] = room temperature, cited from earlier work
[4] = cited from earlier work
[5] = cited from earlier work; remark: listed apart in the source

Ivermectin
D (90) after high shear mixing ([1]; Example 1: ethanol/water/formamide/methylparaben, 2000 RPM, about 3 hours, 0-5° C.): 56 μm
Dv(90) after high shear mixing ([1]; Example 2: ethanol/water/formamide/BHA, 2000 RPM, about 3 hours, 0-5° C.): 53 μm
Dv(90) after high shear mixing ([1]; Example 3: ethanol (100 ml)/water (50 ml)/formamide/methylparaben, 2000 RPM, about 3 hours, 0-5° C.): 57 μm
Dv(90) after high shear mixing ([1]; Example 4: water/isopropanol/formamide/methylparaben, 2000 RPM, about 3 hours, 0-5° C.): 56 μm
Dv(90) after high shear mixing ([1]; Example 5: water (16 ml)/ethanol (16 ml)/formamide, 1000 RPM, about 2 hours, 0-5° C.): 42 μm
Dv(90) after high shear mixing ([1]; Example 6: water (26 ml)/ethanol (30 ml)/formamide, 1000 RPM, about 2 hours, 0-5° C.): 36 μm
Dv(90) after high shear mixing ([1]; Example 7: water (1 ml)/ethanol (30 ml)/formamide, 1000 RPM, about 2 hours, 0-5° C.): 56 μm
D (90) / Dv(90) of starting ivermectin ([1]; before high shear mixing): 301 μm and 295 μm and 300 μm
decomposition under high shear mixer process [2]: did not decompose the product
Pharmacopoeia Classification ([3]; Acetone): Soluble
Solubility ([3]; Acetone): 81 mg/mL
Pharmacopoeia Classification ([3]; Diethyl ether): Soluble
Solubility ([3]; Diethyl ether): 61 mg/mL
Pharmacopoeia Classification ([3]; Dimethylformamide): Freely soluble
Solubility ([3]; Dimethylformamide): 510 mg/mL
Pharmacopoeia Classification ([3]; Ethanol): Soluble
Solubility ([3]; Ethanol): 97 mg/mL
Pharmacopoeia Classification ([3]; Ethyl acetate): Freely soluble
Solubility ([3]; Ethyl acetate): 240 mg/mL
Pharmacopoeia Classification ([3]; Isopropanol (2-propanol)): Soluble
Solubility ([3]; Isopropanol (2-propanol)): 70 mg/mL
Pharmacopoeia Classification ([3]; Methanol): Freely soluble
Solubility ([3]; Methanol): 220 mg/mL
Pharmacopoeia Classification ([3]; Methyl Ethyl ketone): Freely soluble
Solubility ([3]; Methyl Ethyl ketone): 320 mg/mL
Pharmacopoeia Classification ([3]; Tetrahydrofuran): Freely soluble
Solubility ([3]; Tetrahydrofuran): 390 mg/mL
Pharmacopoeia Classification ([3]; Toluene): Soluble
Solubility ([3]; Toluene): 63 mg/mL
Pharmacopoeia Classification ([3]; Water): Practically Insoluble
Solubility ([3]; Water): 0.000001 mg/mL
Pharmacopoeia Classification ([3]; n-Hexane): Slightly soluble
Solubility ([3]; n-Hexane): 0.69 mg/mL
Pharmacopoeia Classification ([3]; p-Dioxane): Freely soluble
Solubility ([3]; p-Dioxane): 430 mg/mL
optimum pH for ivermectin stability in solution [4]: 6.3
solubility in water [5]: low solubility in water
